The source of these data is article PMC7732128, “Regulation of gene transcription by thyroid hormone receptor β agonists in clinical development for the treatment of non-alcoholic steatohepatitis (NASH)” (PLoS ONE, 2020).

For data set [1], the system named is hepatic OATP1B1/B3 transporters. Further details: method as in PMID 19785645. The note with it: cited from earlier work.
Data set [2] addresses T1, THRα (in complex with RXR) (Homo sapiens, UniProt P10827).
T1 construct: expressed in transfected cells; host or cells: HEK293T
T1 sequence (P10827 1-410 isoform P10827-2): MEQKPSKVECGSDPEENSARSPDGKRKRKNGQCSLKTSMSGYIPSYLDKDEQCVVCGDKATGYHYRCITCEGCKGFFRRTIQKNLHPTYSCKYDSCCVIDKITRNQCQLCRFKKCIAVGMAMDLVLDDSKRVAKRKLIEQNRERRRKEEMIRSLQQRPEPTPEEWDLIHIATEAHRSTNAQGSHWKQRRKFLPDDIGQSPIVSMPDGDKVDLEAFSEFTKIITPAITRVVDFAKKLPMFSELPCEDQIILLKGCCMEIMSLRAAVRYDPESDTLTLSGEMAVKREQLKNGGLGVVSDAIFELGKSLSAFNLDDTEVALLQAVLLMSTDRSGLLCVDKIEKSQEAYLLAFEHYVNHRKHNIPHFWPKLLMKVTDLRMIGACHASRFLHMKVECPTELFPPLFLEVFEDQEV
T1 sequence (P19793 1-462 partner): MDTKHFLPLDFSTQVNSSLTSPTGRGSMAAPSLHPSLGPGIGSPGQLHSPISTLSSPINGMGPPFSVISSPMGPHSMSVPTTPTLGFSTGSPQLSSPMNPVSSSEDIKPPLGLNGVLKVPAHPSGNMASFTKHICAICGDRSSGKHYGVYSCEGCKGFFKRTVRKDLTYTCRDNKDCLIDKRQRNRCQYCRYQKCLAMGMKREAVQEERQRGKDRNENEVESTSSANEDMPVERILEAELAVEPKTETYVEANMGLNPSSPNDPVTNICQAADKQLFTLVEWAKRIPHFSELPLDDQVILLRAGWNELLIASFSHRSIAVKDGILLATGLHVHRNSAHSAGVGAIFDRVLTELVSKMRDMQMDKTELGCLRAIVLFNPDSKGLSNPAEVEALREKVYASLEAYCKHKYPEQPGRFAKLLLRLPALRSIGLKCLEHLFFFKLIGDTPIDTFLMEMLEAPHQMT
Briefly: Luciferase reporter assay in HEK293T cells, THRα. The data set is classed as cell-based. The note with it: read-out: THRα EC50 Mean ± SEM. On the procedure:
After initial characterization of in vitro THR-binding/activation, compounds were tested for their ability to bind and activate THRα or β (in complex with RXR), inducing gene expression, in cultured human-derived cells. To this end, HEK293T cells were transiently transfected with a firefly luciferase reporter under control of a TRE (TRE-Luc), a RXR expression plasmid, and either a THRα or β expression plasmid. This assay was performed at Pharmaron Beijing Co., Ltd. (China).
Cells were seeded into 6-well culture plates at 7.0 x 10^5 cells/well and cultured in Dulbecco’s Modified Eagle’s Medium (DMEM; Hyclone, SH30022) supplemented with 10% fetal bovine serum (FBS; Gibco, 16000–044) and 1% Penicillin-Streptomycin (P/S; Corning, 30-002-CI) at 37°C and 5% CO2. […] After overnight incubation, the transfected cells were re-seeded at 1.0 x 10^4 cells/well into 384-well microplates and incubated for an additional 5 to 6 hrs. Test compounds were serially diluted in DMSO and added to the cells (0.1% final DMSO concentration). After approximately 18 to 24 hrs, the culture plates were equilibrated to RT, 30 μL ONE-Glo reagent (Promega, E6120) was added to each well, and luminescence was measured on an EnSpire plate reader (Perkin Elmer). The results were then quantified by calculating percent agonism and dose-response curves were fitted by non-linear regression with variable slope. […]
(In general: Reporter assays use an easily measured gene product as a stand-in for the process of interest.)

The test system of data set [3] is THRβ over THRα. The note with it: from ligand-binding affinities (Kd or Ki); cited from earlier work.
On the set-up of data set [4]: method as in doi:10.1016/s0735-1097(16)31933-7. The note with it: 14-day treatment, ≥ 5 mg; cited from earlier work.
Data set [5] concerns cholesterol-fed rat. Also on record: method as in PMID 18975928. The note with it: cited from earlier work.

As for `CC(C)c1cc(Oc2c(Cl)cc(-n3nc(C#N)c(=O)[nH]c3=O)cc2Cl)n[nH]c1=O` [MGL-3196, 2-[3,5-dichloro-4-(5-isopropyl-6-oxo-1,6-dihydropyridazin-3-yloxy)phenyl]-3,5-dioxo-2,3,4,5-tetrahydro[1,2,4]triazine-6-carbonitrile], the transporter substrate entry in data set [1] was “substrate”.

On to `Cc1cc(OCP(=O)(O)O)cc(C)c1Cc1ccc(O)c(C(C)C)c1` [VK2809A], for which the EC50 (commonly the concentration needed to bring the measured effect to its halfway point) in data set [2] was found to be 297 ± 41.4 nM. The “selectivity for THRβ over THRα” value in data set [3] is 15.8 fold.

As for `Cc1cc(OCP2(=O)OCC[C@@H](c3cccc(Cl)c3)O2)cc(C)c1Cc1ccc(O)c(C(C)C)c1` (stereo partly shown) [VK2809], the concentration for a half-maximal effect (EC50) in data set [2] was found to be 54.8 ± 11.7 nM. Besides, the “reduction in LDL-C” value in data set [4] is “up to 41.2%”. In data set [5] (single dose 0.5 mg/kg), the “reduction in total cholesterol” value is 36%. The “decrease in total cholesterol” value in data set [5] (single dose 3.0 mg/kg) is at most 55%.
